We go through six compounds from paper PMC6054150, “Cytokinin perception in potato: new features of canonical players” (Journal of Experimental Botany, 2018).

“And” between values parts separate entries of the source, which are not always exact repeats. Identical values can stand only once. Like-named read-outs stand apart in the source and are kept apart here. Bounds are passed on as bounds.

In one assay the target is StHK2a (Solanum tuberosum, UniProt A0A2P1D005). The assay is described as follows: Plant membrane (tobacco microsome) hormone binding assay with [3H]trans-zeatin, StHK2a. An excerpt: (§1) The transient transformation of tobacco (Nicotiana benthamiana Domin) leaves was accomplished according to [Sparkes et al. (2006)]. Eight-week-old tobacco plants were infiltrated with a mixture of Agrobacterium tumefaciens carrying CK receptor genes fused to green fluorescent protein (GFP) and the A. tumefaciens helper strain p19 ([Voinnet et al., 2003]), and the expression of receptor genes was checked after 5–6 d with a fluorescence microscope, Axio Imager Z2 (Carl Zeiss Microscopy GmbH), before leaves were processed further for microsome isolation.
(§2) All manipulations were done at 4 °C. Tobacco leaves 6 d after infiltration were homogenized in buffer (3 ml per 1 g of fresh weight) containing 100 mM Tris–HCl (pH 8.0), 2 mM Na2-EDTA, 50 mM KCl, 1 mM DTT, and 1 mM phenylmethylsulfonyl fluoride. The homogenate was filtered through Miracloth (Calbiochem, San Diego, CA, USA), and the filtrate was centrifuged for 5 min at 5000 g. Then supernatant was centrifuged for 40 min at 15000 g. The microsome pellet was resuspended in 50 mM KCl–10% glycerol and the microsome suspension was stored at −70 °C.
(§3) Ligand binding studies were performed in PBS as described previously ([Romanov et al., 2005]; [Lomin et al., 2015]). Studies of pH influence on hormone binding were performed in 50 mM MES–KOH (pH 5–7) or Tris–HCl (pH 7–9) buffers with 50 mM KCl. Kd for [^3H]trans-zeatin (tZ) binding to different receptors was determined in saturation assays followed by data analysis in Scatchard plots.
(§4) To analyse ligand-binding properties of the receptors, a recently developed plant membrane assay system ([Lomin et al., 2015]) was used. Predicted potato CK receptor genes were cloned into pB7FWG2 vectors for transient expression in tobacco leaves. […] Instead of full-length receptor, we clond a genomic sequence of the StHK3a sensory module flanked by transmembrane domains. From the transiently transformed tobacco leaves, a microsomal fraction enriched with individual potato receptors was obtained. The binding assays were conducted using this fraction and tritium-labeled CK. In aggregate, we tested four putative receptors belonging to all three clades: StHK2a, StHK3a (sensory module, further designated as StHK3aSM), StHK4a, and StHK4b.
(§5) First, we determined the pH-dependence of hormone binding to these receptors within the pH range of 5–9 (Fig. 5).
(§6) The interaction of a hormone with a receptor is characterized by the equilibrium dissociation constant (Kd) of the ligand–receptor complex. Kd values were determined by the dose-dependent binding of labeled trans-zeatin to StHKs, and the results were processed by the Scatchard method (Supplementary Fig. S7; [Lomin and Romanov, 2008]).
(§7) Different CKs are usually present in the plant: trans- and cis-zeatins (tZ and cZ), isopentenyladenine (iP), and dihydrozeatin (DZ). In addition to natural CKs, there are many synthetic ones. […] We studied the ligand specificity of putative receptors in competitive experiments where binding of labeled CK was carried out in the presence of various concentrations of certain unlabeled ligands. Based on the obtained competition curves (Supplementary Fig. S8), the apparent Kd values were determined for each ligand as described ([Lomin and Romanov, 2008]). We analysed the interaction of StHKs with six CKs, including five natural ones as well as the synthetic urea-type CK thidiazuron (Table 3).

For a further assay, the target named is StHK4b (Solanum tuberosum, UniProt A0A2U9K786). The assay is described as follows: Plant membrane (tobacco microsome) hormone binding assay with [3H]trans-zeatin, StHK4b.
Description: as §1, §2, §3, §4, §5, §6, §7

The next assay addresses StHK3aSM (Solanum tuberosum, UniProt A0A2U9K793). In words: Plant membrane (tobacco microsome) hormone binding assay with [3H]trans-zeatin, StHK3a sensory module.
Description: as §1, §2, §3, §4, §5, §6, §7

Another assay deals with StHK4a (Solanum tuberosum, UniProt A0A2U9K790). The assay is described as follows: Plant membrane (tobacco microsome) hormone binding assay with [3H]trans-zeatin, StHK4a.
Description: as §1, §2, §3, §4, §5, §6, §7

Assay [1] addresses StHKs (StHK2a, StHK3aSM, StHK4a, StHK4b). In words: Competitive binding, summary over the analysed StHKs. The arrangement: species or system Solanum tuberosum. The settings on record: span over StHK2a, read-out: apparent Kd, all analysed StHKs. As for the experimental part:
as §3
To analyse ligand-binding properties of the receptors, a recently developed plant membrane assay system ([Lomin et al., 2015]) was used. Predicted potato CK receptor genes were cloned into pB7FWG2 vectors for transient expression in tobacco leaves. […] Instead of full-length receptor, we clond a genomic sequence of the StHK3a sensory module flanked by transmembrane domains. From the transiently transformed tobacco leaves, a microsomal fraction enriched with individual potato receptors was obtained. The binding assays were conducted using this fraction and tritium-labeled CK. […]
Different CKs are usually present in the plant: trans- and cis-zeatins (tZ and cZ), isopentenyladenine (iP), and dihydrozeatin (DZ). […] Based on the obtained competition curves (Supplementary Fig. S8), the apparent Kd values were determined for each ligand as described ([Lomin and Romanov, 2008]). We analysed the interaction of StHKs with six CKs, including five natural ones as well as the synthetic urea-type CK thidiazuron (Table 3).

A further assay relates to StRR-A genes. In words: qRT-PCR of type A response regulator gene expression after BA treatment of potato plants. The format is in vivo, Solanum tuberosum. The settings on record: 1 μM BA, 1 h; 1.5% sucrose. As for the experimental part:
(§8) Potato cv. Désirée plants were cultivated under standard in vitro conditions at a long (16 h) day for 5–6 weeks on liquid MS medium containing 1.5% or 5% sucrose. For hormone treatment, the medium was replaced with the same one supplemented with N^6-benzyladenine (BA, 1 μM). Tubes were inverted several times to assure uniform plant wetting and then incubated for 1 h under standard conditions. Finally, plant organs (leaves, stems, roots, tubers) were isolated and immediately frozen in liquid nitrogen. Control plants were treated in the same way but without hormone. Total RNA was isolated by the Trizol method ([Brenner et al., 2005]), and served as the template for cDNA synthesis by reverse transcription (Invitrogen). All RNA samples were treated with RNase-free DNase I. The resulting cDNA was checked for genomic DNA contamination by PCR with primers differentiating cDNA and genomic DNA. The band derived from genomic DNA was absent in the separating gel. Expression of genes encoding predicted proteins of the CK signaling system was determined by qRT-PCR. Potato housekeeping genes StEF1α (elongation factor 1-α, AB061263) and StCYC (cyclophilin, AF126551) were used as reference genes ([Nicot et al., 2005]). […]
To validate the results of CK treatment experiments, the effect of CK administration on the transcript level of the genes of type A response regulator (RR-A) genes was analysed. […]
In general terms: Quantitative PCR measures a nucleic acid by following its amplification.

The next assay relates to StHK4 expression. The assay is described as follows: qRT-PCR of CK receptor gene expression after BA treatment of potato plants. In kind it is in vivo, Solanum tuberosum. The note with it: leaves; 1.5% sucrose; 1 μM BA, 1 h; on average. On the procedure: as §8
At 1.5% sucrose, the up-regulation (on average, 2.5-fold) of StHK4 expression was regularly recorded, but only in leaves (Fig. 8). […]

Where [2] appears, read: competition with labeled trans-zeatin (tZ value from saturation/Scatchard); mean ± SE; read-out: Apparent Kd StHK2a.
Setting [3] is: competition with labeled trans-zeatin (tZ value from saturation/Scatchard), mean ± SE, read-out: Apparent Kd StHK4b.
[4] abbreviates: sensory module, competition with labeled trans-zeatin (tZ value from saturation/Scatchard), mean ± SE, read-out: Apparent Kd StHK3a SM.
The mark [5] stands for this setting: competition with labeled trans-zeatin (tZ value from saturation/Scatchard), mean ± SE, read-out: Apparent Kd StHK4a.

Sequence of StHK3aSM (A0A2U9K793 entry or part of it): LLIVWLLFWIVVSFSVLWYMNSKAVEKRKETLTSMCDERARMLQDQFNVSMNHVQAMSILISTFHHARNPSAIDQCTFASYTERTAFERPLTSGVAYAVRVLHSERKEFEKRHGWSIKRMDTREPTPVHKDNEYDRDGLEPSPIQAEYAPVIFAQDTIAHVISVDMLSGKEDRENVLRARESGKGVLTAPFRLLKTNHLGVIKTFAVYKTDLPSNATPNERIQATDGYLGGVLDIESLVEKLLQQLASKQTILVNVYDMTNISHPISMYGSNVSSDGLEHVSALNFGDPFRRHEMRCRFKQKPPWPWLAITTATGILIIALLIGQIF
Sequence of StHK2a (A0A2P1D005 entry or part of it): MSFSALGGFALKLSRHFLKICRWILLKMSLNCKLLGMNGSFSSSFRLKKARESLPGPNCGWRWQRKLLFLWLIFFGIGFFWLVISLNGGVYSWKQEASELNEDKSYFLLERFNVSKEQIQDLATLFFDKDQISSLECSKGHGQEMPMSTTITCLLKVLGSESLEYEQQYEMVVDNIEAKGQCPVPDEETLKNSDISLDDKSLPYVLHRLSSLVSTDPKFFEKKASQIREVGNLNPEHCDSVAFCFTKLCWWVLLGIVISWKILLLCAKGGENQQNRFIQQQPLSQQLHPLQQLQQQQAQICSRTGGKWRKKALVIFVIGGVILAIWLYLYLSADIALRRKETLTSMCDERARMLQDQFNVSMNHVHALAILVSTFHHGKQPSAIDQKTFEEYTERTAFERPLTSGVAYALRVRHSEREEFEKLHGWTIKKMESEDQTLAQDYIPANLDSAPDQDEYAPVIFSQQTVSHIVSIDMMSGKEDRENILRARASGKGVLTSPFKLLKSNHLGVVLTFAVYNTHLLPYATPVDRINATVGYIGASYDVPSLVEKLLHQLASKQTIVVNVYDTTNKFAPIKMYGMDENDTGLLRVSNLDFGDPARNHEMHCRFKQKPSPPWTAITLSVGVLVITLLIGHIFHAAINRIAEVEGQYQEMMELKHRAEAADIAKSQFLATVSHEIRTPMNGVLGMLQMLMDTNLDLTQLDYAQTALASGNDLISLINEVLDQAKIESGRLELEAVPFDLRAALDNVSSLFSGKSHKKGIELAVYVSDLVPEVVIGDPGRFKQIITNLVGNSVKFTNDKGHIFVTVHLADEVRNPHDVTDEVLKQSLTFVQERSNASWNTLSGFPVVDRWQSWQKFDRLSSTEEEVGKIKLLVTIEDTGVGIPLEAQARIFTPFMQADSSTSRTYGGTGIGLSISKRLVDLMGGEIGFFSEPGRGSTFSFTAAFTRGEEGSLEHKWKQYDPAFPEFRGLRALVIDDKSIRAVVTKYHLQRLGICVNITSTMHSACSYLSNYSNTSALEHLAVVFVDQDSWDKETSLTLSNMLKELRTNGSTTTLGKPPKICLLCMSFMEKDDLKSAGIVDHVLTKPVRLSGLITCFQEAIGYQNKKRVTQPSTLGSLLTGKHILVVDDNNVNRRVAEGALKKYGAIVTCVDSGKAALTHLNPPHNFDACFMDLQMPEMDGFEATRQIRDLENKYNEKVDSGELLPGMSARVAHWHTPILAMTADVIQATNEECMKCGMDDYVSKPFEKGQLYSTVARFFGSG
Sequence of StHK4b (A0A2U9K786 entry or part of it): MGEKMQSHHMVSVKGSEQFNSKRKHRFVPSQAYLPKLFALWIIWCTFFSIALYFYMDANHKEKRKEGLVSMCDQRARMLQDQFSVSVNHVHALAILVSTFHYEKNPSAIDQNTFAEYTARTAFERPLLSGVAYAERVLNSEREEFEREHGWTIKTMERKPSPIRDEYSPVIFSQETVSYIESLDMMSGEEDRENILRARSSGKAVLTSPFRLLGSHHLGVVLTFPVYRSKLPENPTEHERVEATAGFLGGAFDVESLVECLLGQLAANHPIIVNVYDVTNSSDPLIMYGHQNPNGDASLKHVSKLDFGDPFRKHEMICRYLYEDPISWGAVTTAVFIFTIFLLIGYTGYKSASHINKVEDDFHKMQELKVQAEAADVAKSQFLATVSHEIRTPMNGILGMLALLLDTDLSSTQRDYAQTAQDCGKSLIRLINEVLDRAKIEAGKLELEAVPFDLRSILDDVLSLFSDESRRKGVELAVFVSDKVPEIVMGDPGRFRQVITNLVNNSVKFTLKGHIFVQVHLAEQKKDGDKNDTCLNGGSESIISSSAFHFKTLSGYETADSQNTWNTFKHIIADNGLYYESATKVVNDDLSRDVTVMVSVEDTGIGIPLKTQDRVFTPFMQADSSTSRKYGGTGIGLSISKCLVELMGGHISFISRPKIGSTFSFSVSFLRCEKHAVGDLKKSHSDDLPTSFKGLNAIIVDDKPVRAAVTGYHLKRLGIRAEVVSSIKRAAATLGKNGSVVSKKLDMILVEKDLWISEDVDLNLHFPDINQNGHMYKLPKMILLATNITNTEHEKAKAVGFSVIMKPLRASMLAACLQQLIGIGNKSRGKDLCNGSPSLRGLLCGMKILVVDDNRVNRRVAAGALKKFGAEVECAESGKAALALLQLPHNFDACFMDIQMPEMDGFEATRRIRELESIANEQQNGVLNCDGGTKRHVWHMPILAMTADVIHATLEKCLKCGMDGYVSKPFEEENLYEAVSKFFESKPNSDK
Sequence of StHK4a (A0A2U9K790 entry or part of it): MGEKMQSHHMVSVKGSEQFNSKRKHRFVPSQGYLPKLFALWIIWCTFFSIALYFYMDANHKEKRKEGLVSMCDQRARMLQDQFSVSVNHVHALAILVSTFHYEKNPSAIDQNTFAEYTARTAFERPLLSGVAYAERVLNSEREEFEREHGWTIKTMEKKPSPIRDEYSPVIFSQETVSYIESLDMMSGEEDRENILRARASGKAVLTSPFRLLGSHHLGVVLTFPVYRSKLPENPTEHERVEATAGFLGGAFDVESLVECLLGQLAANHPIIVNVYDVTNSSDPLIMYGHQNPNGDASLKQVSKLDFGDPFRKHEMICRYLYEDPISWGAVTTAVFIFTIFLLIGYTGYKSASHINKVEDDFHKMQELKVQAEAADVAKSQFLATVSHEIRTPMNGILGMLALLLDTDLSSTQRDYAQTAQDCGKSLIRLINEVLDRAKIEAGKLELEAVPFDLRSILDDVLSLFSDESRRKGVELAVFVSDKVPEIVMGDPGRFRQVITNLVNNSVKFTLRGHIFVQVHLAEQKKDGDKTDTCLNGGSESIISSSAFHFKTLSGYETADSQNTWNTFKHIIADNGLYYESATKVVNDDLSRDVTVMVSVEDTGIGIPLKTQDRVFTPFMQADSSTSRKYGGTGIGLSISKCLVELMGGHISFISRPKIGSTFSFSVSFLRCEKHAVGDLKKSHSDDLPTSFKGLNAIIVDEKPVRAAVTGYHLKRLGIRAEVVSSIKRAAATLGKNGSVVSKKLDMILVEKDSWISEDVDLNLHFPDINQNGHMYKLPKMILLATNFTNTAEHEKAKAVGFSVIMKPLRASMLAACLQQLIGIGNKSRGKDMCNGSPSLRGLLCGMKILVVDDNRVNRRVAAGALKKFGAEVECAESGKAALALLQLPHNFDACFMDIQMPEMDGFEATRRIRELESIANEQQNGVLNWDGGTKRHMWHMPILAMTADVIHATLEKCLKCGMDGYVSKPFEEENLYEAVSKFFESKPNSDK

Consider `O=C(Nc1ccccc1)Nc1cnns1` [Thidiazuron], for which the Kd at StHK2a (setting [2]) turned out to be 1.4 ± 0.04 nM; at StHK4b (setting [3]), 17.2 ± 2.5 nM; at StHK3aSM (setting [4]), 2.3 ± 0.5 nM; at StHK4a (setting [5]) it was 12.6 ± 1.9 nM.
On the same counts, the results for `CC(C)=CCNc1ncnc2nc[nH]c12` [N ^6-Isopentenyladenine] are 2.4 ± 0.2 nM, 2.5 ± 0.3 nM, 5.2 ± 0.8 nM and 2.1 ± 0.2 nM.
Consider `CC(CO)CCNc1ncnc2nc[nH]c12` (stereo not drawn) [Dihydrozeatin], for which the Kd on StHK2a (setting [2]) is 169 ± 18 nM; on StHK4b (setting [3]) it was 227 ± 33 nM; at StHK3aSM (setting [4]), ~21 nM and 21 nM; on StHK4a (setting [5]), 178 ± 37 nM.
Regarding `C/C(=C/CNc1ncnc2nc[nH]c12)CO` [cis-Zeatin], the Kd is more than 100 nM in assay [1]; 102 ± 7 nM on StHK2a (read-out: Apparent Kd StHK2a); 129 ± 19 nM on StHK4b (read-out: Apparent Kd StHK4b); 110 ± 39 nM on StHK3aSM (read-out: Apparent Kd StHK3a SM); 106 ± 22 nM at StHK4a (read-out: Apparent Kd StHK4a).
Consider `C/C(=C\CNc1ncnc2[nH]cnc12)CO` [trans-Zeatin], for which the “pH of maximal trans-zeatin binding, StHK2a” value on StHK2a worked out at 7.5. Moreover, the “reduction of binding at pH 5 (factor), StHK2a” value on StHK2a was determined as 2. Besides, the Kd is 2.6 ± 0.3 nM at StHK2a (setting [2]), 3 ± 0.3 nM at StHK4b (setting [3]), 4.7 ± 0.6 nM on StHK3aSM (setting [4]) and 2.5 ± 0.7 nM on StHK4a (setting [5]). Further, the “decrease of ligand binding at pH 5, StHK4b” value at StHK4b (pH 5) is “about 3 fold”. For the same compound, the “pH of maximal trans-zeatin binding, StHK3aSM” value on StHK3aSM turned out to be 7. On StHK3aSM, the “reduction of binding at pH 5 (factor), StHK3aSM” value turned out to be 5. For the same compound, the “decrease of ligand binding at pH 5, StHK4a” value at StHK4a (pH 5) was “about 3 fold”.
As to `c1ccc(CNc2ncnc3nc[nH]c23)cc1` [N ^6-Benzyladenine], the “expression of StRR-A genes” value with StRR-A genes is “rapid and reliable increase”. The Kd is 45 ± 3.5 nM on StHK2a (read-out: Apparent Kd StHK2a; competition with labeled trans-zeatin (tZ value from saturation/Scatchard); mean ± SE); 63 ± 12 nM at StHK4b; 49 ± 7 nM on StHK3aSM (Apparent Kd StHK3a SM, sensory module, competition with labeled trans-zeatin (tZ value from saturation/Scatchard), mean ± SE); 55 ± 7 nM at StHK4a. Moreover, the “up-regulation of StHK4 expression (BA/control)” value in the assay with StHK4 expression was found to be 2.5 fold.
